# Target: AChE (acetylcholinesterase) (Electrophorus electricus, UniProt O42275)
# Test: Ellman spectrophotometric assay
# Assay type: biochemical
# Sequence of AChE (acetylcholinesterase) (O42275 24-633): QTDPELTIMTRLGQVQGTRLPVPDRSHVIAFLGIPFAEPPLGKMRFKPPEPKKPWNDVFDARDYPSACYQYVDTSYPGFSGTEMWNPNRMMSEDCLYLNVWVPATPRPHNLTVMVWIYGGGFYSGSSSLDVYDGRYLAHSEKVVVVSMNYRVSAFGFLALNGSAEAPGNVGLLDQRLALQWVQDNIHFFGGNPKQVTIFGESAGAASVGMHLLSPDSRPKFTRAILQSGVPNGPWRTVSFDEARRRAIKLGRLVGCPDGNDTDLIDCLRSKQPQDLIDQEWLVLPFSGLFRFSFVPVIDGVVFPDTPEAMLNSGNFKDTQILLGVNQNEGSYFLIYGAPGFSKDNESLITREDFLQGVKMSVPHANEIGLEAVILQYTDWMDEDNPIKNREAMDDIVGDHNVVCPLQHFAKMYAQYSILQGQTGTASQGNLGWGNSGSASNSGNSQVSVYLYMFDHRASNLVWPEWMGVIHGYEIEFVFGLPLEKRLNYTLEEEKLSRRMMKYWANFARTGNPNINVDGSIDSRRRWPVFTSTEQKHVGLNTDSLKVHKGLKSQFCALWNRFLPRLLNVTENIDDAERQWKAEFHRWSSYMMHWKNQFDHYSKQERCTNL
row,Compound,IC50
1,"CC(=O)OC1C(C)CC(=O)N2CCCC3=C(CCC2)C1CC3=O (stereo not drawn) [compound 1, lycosquarosine A]",170 µM
2,"COc1ccc2cc3[n+](cc2c1OC)CCc1cc2c(cc1-3)OCO2 [Berberine, reference compound]",0.268 µM
3,acetylaposerratinine [compound 2],15.2 µg/mL
